Assays:
ABHD6 = target: T1, ABHD6 (Mus musculus, UniProt Q8R2Y0); experiment: In vitro competitive activity-based protein profiling, mouse brain proteome, ABHD6; assay type: biochemical; conditions: mouse
T1 construct: Brain; from tissue; host or cells: mouse brain proteome
T1 sequence (Q8R2Y0 1-336): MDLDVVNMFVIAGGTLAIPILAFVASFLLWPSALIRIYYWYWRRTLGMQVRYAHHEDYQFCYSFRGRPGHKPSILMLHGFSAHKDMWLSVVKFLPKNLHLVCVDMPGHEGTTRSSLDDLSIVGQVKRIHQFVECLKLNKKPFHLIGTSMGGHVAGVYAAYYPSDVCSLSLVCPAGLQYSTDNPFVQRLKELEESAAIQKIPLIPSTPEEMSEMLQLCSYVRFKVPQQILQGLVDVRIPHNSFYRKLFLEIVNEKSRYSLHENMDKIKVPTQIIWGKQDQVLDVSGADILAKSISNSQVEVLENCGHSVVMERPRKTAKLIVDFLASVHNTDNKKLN
Description: [Worded in the source for another target; this target is reported under the same test.] (§1) Proteomes (human prefrontal cortex or cell membrane fractions) (50 μL, 1.0 mg/mL total protein concentration) were preincubated with varying concentrations of inhibitors at 37° C. After 30 min, FP—Rh or HT-01 (1.0 μL, 50 μM in DMSO) was added and the mixture was incubated for another 30 min at room temperature. Reactions were quenched with SDS loading buffer (15 μL-4×) and run on SDS-PAGE.

MAGL = target: T2, MAGL (Mus musculus, UniProt O35678); experiment: Mouse brain proteomes from inhibitor treated mice (oral gavage, brain proteomes analyzed 4 h after administration); assay type: in vivo, mouse (C57Bl/6J); conditions: brain proteome 4 h after administration, read-out: % Inh 5 mg/kg MGLL (Mouse)
T2 construct: from tissue; host or cells: brain of wild-type C57Bl/6J mice
T2 sequence (O35678 1-303): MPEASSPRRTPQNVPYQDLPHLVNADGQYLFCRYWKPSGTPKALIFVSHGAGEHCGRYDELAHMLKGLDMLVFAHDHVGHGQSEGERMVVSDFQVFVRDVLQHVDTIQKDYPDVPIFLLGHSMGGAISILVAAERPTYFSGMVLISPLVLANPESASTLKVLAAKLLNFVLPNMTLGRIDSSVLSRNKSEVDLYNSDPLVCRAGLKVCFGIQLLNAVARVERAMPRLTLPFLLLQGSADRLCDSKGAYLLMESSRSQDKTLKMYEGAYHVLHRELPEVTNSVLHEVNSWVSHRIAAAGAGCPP
Summary of the method: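 Wild-type C57Bl/6J mice dosed orally in polyethylene glycol vehicle; brains removed 4 h post-dose and brain proteomes prepared and analysed for MAGL and serine hydrolase activity by previously established methods.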

MGLL = target: T3, MGLL (Mus musculus, UniProt O35678); experiment: In vitro competitive activity-based protein profiling, mouse brain proteome; assay type: biochemical
T3 construct: Brain; from tissue; host or cells: mouse brain proteome
T3 sequence (O35678 1-303): T2 sequence (O35678 1-303)
Description: [Worded in the source for another species; this species is reported under the same test.] as §1

SMILES | IC50 (ABHD6) [µM] | inhibition at 5 mg/kg (MAGL) [%] | IC50 (MGLL) [µM]
CC(=O)N1CCC2(CC1)CCN(c1cc(Cl)ccc1CN1CCN(C(=O)OC(C(F)(F)F)C(F)(F)F)CC1)C2 [Example 29, 1,1,1,3,3,3-Hexafluoropropan-2-yl 4-(2-(8-acetyl-2,8-diazaspiro[4.5]decan-2-yl)-4-chlorobenzyl)piperazine-1-carboxylate] | > 1 | ≥ 75 | < 0.1
CS(=O)(=O)N1CCC2(CCN(c3cc(Cl)ccc3CN3CCN(C(=O)OC(C(F)(F)F)C(F)(F)F)CC3)C2)CC1 [Example 30, 1,1,1,3,3,3-Hexafluoropropan-2-yl 4-(4-chloro-2-(8-(methylsulfonyl)-2,8-diazaspiro[4.5]decan-2-yl)benzyl)piperazine-1-carboxylate] | > 1 | ≤ 25 | < 0.1
CC(=O)N1CCN(c2cccc(C(F)(F)F)c2CN2CC3(CCN(C(=O)OC(C(F)(F)F)C(F)(F)F)CC3)C2)CC1 [Example 59, 1,1,1,3,3,3-Hexafluoropropan-2-yl 2-(2-(4-acetylpiperazin-1-yl)-6-(trifluoromethyl)benzyl)-2,7-diazaspiro[3.5]nonane-7-carboxylate] | 0.1 to 1 | ≥ 75 | < 0.1
O=C(OC(C(F)(F)F)C(F)(F)F)N1CCC2(CC1)CN(Cc1c(N3CCCCC3)cccc1C(F)(F)F)C2 [Example 41, 1,1,1,3,3,3-Hexafluoropropan-2-yl 2-(2-(piperidin-1-yl)-6-(trifluoromethyl)benzyl)-2,7-diazaspiro[3.5]nonane-7-carboxylate] | > 1 | ≥ 75 | < 0.1
O=C(OC(C(F)(F)F)C(F)(F)F)N1CCC2(CC1)CN(Cc1c(Cl)cccc1N1CCOCC1)C2 [Example 46, 1,1,1,3,3,3-Hexafluoropropan-2-yl 2-(2-chloro-6-morpholinobenzyl)-2,7-diazaspiro[3.5]nonane-7-carboxylate] | < 0.1 | ≥ 75 | < 0.1
CC(=O)N1CC2(CCN(c3cc(Cl)ccc3CN3CCN(C(=O)OC(C(F)(F)F)C(F)(F)F)CC3)C2)C1 [Example 176, 1,1,1,3,3,3-Hexafluoropropan-2-yl 4-(2-(2-acetyl-2,6-diazaspiro[3.4]octan-6-yl)-4-chlorobenzyl) piperazine-1-carboxylate] | > 1 | ≥ 75 | < 0.1
CC(=O)N1CCC2(CCN(c3ccccc3CN3CCN(C(=O)OC(C(F)(F)F)C(F)(F)F)CC3)C2)C1 (stereo not drawn) [Example 166, 1,1,1,3,3,3-Hexafluoropropan-2-yl 4-(2-(7-acetyl-2,7-diazaspiro[4.4]nonan-2-yl)benzyl)piperazine-1-carboxylate] | > 1 | ≤ 25 | < 0.1
O=C(OC(C(F)(F)F)C(F)(F)F)N1CCC2(CC1)CN(Cc1c(N3CC4COCC4C3)cccc1C(F)(F)F)C2 (stereo not drawn) [Example 32, 1,1,1,3,3,3-Hexafluoropropan-2-yl 2-(2-(tetrahydro-1H-furo[3,4-c]pyrrol-5(3H)-yl)-6-(trifluoromethyl)benzyl)-2,7-diazaspiro[3.5]nonane-7-carboxylate] | > 1 | ≥ 75 | < 0.1
O=C(OC(C(F)(F)F)C(F)(F)F)N1CCC2(CC1)CN(Cc1c(N3CCN(C4CC4)CC3)cccc1C(F)(F)F)C2 [Example 60, 1,1,1,3,3,3-Hexafluoropropan-2-yl 2-(2-(4-cyclopropylpiperazin-1-yl)-6-(trifluoromethyl)benzyl)-2,7-diazaspiro[3.5]nonane-7-carboxylate] | > 1 | ≥ 75 | < 0.1
CC(=O)N1CCN(c2cccc(Cl)c2CN2CC3(CCN(C(=O)OC(C(F)(F)F)C(F)(F)F)CC3)C2)CC1 [Example 49, 1,1,1,3,3,3-Hexafluoropropan-2-yl 2-(2-(4-acetylpiperazin-1-yl)-6-chlorobenzyl)-2,7-diazaspiro[3.5]nonane-7-carboxylate] | < 0.1 | ≥ 75 | < 0.1
CS(=O)(=O)N1CC2(CCN(c3cc(Cl)ccc3CN3CCN(C(=O)OC(C(F)(F)F)C(F)(F)F)CC3)C2)C1 [Example 175, 1,1,1,3,3,3-Hexafluoropropan-2-yl 4-(4-chloro-2-(2-(methylsulfonyl)-2,6-diazaspiro[3.4]octan-6-yl)benzyl)piperazine-1-carboxylate] | > 1 | ≥ 75 | < 0.1
CS(=O)(=O)N1CCC2(CCN(c3cccc(C(F)(F)F)c3CN3CC4(CCN(C(=O)OC(C(F)(F)F)C(F)(F)F)CC4)C3)CC2)C1 [Example 62, 1,1,1,3,3,3-Hexafluoropropan-2-yl 2-(2-(2-(methylsulfonyl)-2,8-diazaspiro[4.5]decan-8-yl)-6-(trifluoromethyl)benzyl)-2,7-diazaspiro[3.5]nonane-7-carboxylate] | > 1 | 25 to 75 | < 0.1
O=C(OC(C(F)(F)F)C(F)(F)F)N1CCC2(CC1)CN(Cc1c(Cl)cccc1N1CCCCC1)C2 [Example 45, 1,1,1,3,3,3-Hexafluoropropan-2-yl 2-(2-chloro-6-(piperidin-1-yl)benzyl)-2,7-diazaspiro[3.5]nonane-7-carboxylate] | < 0.1 | ≥ 75 | < 0.1

Results, then the molecule that gave them:

IC50 (ABHD6) [µM] | inhibition at 5 mg/kg (MAGL) [%] | IC50 (MGLL) [µM] | SMILES
> 1 | ≤ 25 | < 0.1 | CS(=O)(=O)N1CCC2(CCN(c3cc(C(F)(F)F)ccc3CN3CCN(C(=O)OC(C(F)(F)F)C(F)(F)F)CC3)C2)CC1 [Example 196, 1,1,1,3,3,3-Hexafluoropropan-2-yl 4-(2-(8-(methylsulfonyl)-2,8-diazaspiro[4.5]decan-2-yl)-4-(trifluoromethyl)benzyl)piperazine-1-carboxylate]
> 1 | ≥ 75 | < 0.1 | O=C(OC(C(F)(F)F)C(F)(F)F)N1CCC2(CCN(Cc3ccc(Cl)cc3N3CCCCC3)CC2)C1 [Example 191, 1,1,1,3,3,3-Hexafluoropropan-2-yl 8-(4-chloro-2-(piperidin-1-yl)benzyl)-2,8-diazaspiro[4.5]decane-2-carboxylate]
> 1 | ≥ 75 | < 0.1 | CC(=O)N1CCC2(CCN(c3cc(Cl)ccc3CN3CCN(C(=O)OC(C(F)(F)F)C(F)(F)F)CC3)CC2)C1 [Example 178, 1,1,1,3,3,3-Hexafluoropropan-2-yl 4-(2-(2-acetyl-2,8-diazaspiro[4.5]decan-8-yl)-4-chlorobenzyl) piperazie-1-carboxylate]
> 1 | ≥ 75 | < 0.1 | CC(=O)N1CCC2(CC1)CN(c1cc(C(F)(F)F)ccc1CN1CCN(C(=O)OC(C(F)(F)F)C(F)(F)F)CC1)C2 [Example 199, 1,1,1,3,3,3-Hexafluoropropan-2-yl 4-(2-(7-acetyl-2,7-diazaspiro[3.5]nonan-2-yl)-4-(trifluoromethyl)benzyl)piperazine-1-carboxylate]
> 1 | ≥ 75 | < 0.1 | CS(=O)(=O)N1CC2(CCN(c3cc(C(F)(F)F)ccc3CN3CCN(C(=O)OC(C(F)(F)F)C(F)(F)F)CC3)CC2)C1 [Example 211, 1,1,1,3,3,3-Hexafluoropropan-2-yl 4-(2-(2-(methylsulfonyl)-2,7-diazaspiro[3.5]nonan-7-yl)-4-(trifluoromethyl)benzyl)piperazine-1-carboxylate]
> 1 | ≤ 25 | < 0.1 | CN1CCC2(CCN(c3cc(C(F)(F)F)ccc3CN3CCN(C(=O)OC(C(F)(F)F)C(F)(F)F)CC3)CC2)C1 [Example 182, 1,1,1,3,3,3-Hexafluoropropan-2-yl 4-(2-(2-methyl-2,8-diazaspiro[4.5]decan-8-yl)-4-(trifluoromethyl)benzyl)piperazine-1-carboxylate]
> 1 | ≥ 75 | < 0.1 | O=C(OC(C(F)(F)F)C(F)(F)F)N1CCC2(CCN(Cc3ccc(C(F)(F)F)cc3N3CC4CCC(C3)O4)CC2)C1 [Example 190, 1,1,1,3,3,3-Hexafluoropropan-2-yl 8-(2-(8-oxa-3-azabicyclo[3.2.1]octan-3-yl)-4-(trifluoromethyl)benzyl)-2,8-diazaspiro[4.5]decane-2-carboxylate]
> 1 | ≥ 75 | < 0.1 | CC(=O)N1CCC2(CC1)CN(c1cc(Cl)ccc1CN1CCN(C(=O)OC(C(F)(F)F)C(F)(F)F)CC1)C2 [Example 198, 1,1,1,3,3,3-Hexafluoropropan-2-yl 4-(2-(7-acetyl-2,7-diazaspiro[3.5]nonan-2-yl)-4-chlorobenzyl)piperazine-1-carboxylate]
